Laboratory results from US20240270762A1, “PENICILLIN-BINDING PROTEIN INHIBITORS” (priority 2021, published 2024).
Converted amounts (≈) assume the structure as drawn.

Assays:
E. coli AG100A = assay: Broth microdilution MIC in CAMHB; type: cell-based; conditions: Escherichia coli, read-out: MIC E. coli AG100A
E. coli 901C = assay: microbe, parasite or virus in culture; type: cell-based; conditions: Escherichia coli, read-out: MIC E. coli 901C
K. pneumoniae 848844 = assay: microbe, parasite or virus in culture; type: cell-based; conditions: Klebsiella pneumoniae, 848844, read-out: MIC K. pneumoniae 848844
K. pneumoniae SI-117 = assay: microbe, parasite or virus in culture; type: cell-based; conditions: Klebsiella pneumoniae, SI117, read-out: MIC K. pneumoniae SI-117
[1] = tested on: P. aeruginosa (ΔmexAB-oprM); assay: Broth microdilution MIC in CAMHB; type: cell-based; conditions: Pseudomonas aeruginosa; read-out: MIC P. aeruginosa ΔmexAB-oprM
P. aeruginosa ATCC 27853 = assay: microbe, parasite or virus in culture; type: cell-based; conditions: Pseudomonas aeruginosa, ATCC27853, read-out: MIC P. aeruginosa ATCC 27853
E. coli D22 = assay: microbe, parasite or virus in culture; type: cell-based; conditions: Escherichia coli, D22, read-out: MIC E. coli D22
K. pneumoniae UMM = assay: microbe, parasite or virus in culture; type: cell-based; conditions: Klebsiella pneumoniae, read-out: MIC K. pneumoniae UMM
P. aeruginosa ATCC 35151 = assay: microbe, parasite or virus in culture; type: cell-based; conditions: Pseudomonas aeruginosa, ATCC35151, read-out: MIC P. aeruginosa ATCC 35151
A. baumannii ATCC 19606 = assay: microbe, parasite or virus in culture; type: cell-based; conditions: Acinetobacter baumannii, ATCC19606, read-out: MIC, A. baumannii ATCC 19606
E. coli AG100 = assay: microbe, parasite or virus in culture; type: cell-based; conditions: Escherichia coli, AG100, read-out: MIC E. coli AG100
E. coli ATCC 25922 = assay: microbe, parasite or virus in culture; type: cell-based; conditions: Escherichia coli, ATCC25922, read-out: MIC E. coli 25922
A. baumannii PBP2 = A. baumannii PBP2 (Acinetobacter baumannii, UniProt D0C8Z9); assay: Bocillin-FL competition binding via gel filtration, A. baumannii PBP2
In short: (§1)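 Competitive equilibrium binding; reporter Bocillin-FL. PBP + inhibitor (titration) pre-incubated → Bocillin-FL, 15 min → gel filtration → fluorescence. EC50 from Hill fit of fraction bound vs [inhibitor].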

A. baumannii PBP1a = molecular target: T1, A. baumannii PBP1a (Acinetobacter baumannii, UniProt A0ABX6CK30); assay: Bocillin-FL competition binding via gel filtration, A. baumannii PBP1a; conditions: competition binding assay using Bocillin-FL via gel filtration; read-out: A. baumannii PBP1a Potency
T1 sequence (A0ABX6CK30 1-851): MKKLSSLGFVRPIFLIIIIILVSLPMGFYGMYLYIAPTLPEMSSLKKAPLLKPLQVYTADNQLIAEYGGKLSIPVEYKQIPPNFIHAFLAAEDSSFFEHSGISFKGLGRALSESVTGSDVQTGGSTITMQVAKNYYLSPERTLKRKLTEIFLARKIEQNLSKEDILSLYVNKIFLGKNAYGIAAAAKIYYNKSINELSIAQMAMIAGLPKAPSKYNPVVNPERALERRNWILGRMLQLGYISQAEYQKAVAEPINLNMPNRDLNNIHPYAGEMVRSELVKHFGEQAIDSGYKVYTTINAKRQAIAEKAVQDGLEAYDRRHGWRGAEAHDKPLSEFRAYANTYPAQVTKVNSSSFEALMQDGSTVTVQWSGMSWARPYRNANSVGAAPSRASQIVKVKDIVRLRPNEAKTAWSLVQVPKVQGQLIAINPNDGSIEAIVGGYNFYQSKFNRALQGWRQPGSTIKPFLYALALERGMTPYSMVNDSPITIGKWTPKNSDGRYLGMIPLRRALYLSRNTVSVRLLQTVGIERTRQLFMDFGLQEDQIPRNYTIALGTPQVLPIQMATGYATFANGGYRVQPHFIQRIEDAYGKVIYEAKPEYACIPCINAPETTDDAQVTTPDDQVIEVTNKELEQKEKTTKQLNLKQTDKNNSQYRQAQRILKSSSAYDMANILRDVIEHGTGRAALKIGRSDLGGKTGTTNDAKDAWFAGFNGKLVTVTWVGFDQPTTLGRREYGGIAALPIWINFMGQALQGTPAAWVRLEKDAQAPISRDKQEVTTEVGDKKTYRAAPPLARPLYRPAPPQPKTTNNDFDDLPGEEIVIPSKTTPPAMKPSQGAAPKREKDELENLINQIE
In short: as §1

A. baumannii PBP2, sequence (D0C8Z9 whole entry): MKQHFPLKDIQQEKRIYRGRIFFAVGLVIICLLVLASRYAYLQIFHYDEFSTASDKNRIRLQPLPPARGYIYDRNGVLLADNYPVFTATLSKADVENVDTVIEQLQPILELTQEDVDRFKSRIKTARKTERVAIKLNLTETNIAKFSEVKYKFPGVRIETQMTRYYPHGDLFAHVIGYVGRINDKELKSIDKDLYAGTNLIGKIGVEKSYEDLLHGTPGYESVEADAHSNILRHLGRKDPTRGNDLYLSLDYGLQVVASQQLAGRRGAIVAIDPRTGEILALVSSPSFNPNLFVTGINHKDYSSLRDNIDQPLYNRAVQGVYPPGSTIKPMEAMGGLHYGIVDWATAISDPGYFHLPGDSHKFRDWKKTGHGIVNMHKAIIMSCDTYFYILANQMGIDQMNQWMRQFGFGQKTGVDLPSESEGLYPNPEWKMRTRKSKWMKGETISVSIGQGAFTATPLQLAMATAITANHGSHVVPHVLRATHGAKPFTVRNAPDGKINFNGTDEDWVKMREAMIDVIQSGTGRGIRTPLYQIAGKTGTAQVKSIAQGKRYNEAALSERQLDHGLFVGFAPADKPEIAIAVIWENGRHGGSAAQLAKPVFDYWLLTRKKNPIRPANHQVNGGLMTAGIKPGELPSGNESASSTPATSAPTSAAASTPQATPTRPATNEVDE

O=C(O)c1cccc2c1OB(O)[C@@H](NC(=O)[C@@H](NC(=O)c1cnc3n(c1=O)CCS3)c1ccc(P(=O)(O)O)cc1)C2 (single isomer, unassigned) [Example 196]
MIC (E. coli AG100A): > 128 µg/mL | MIC (E. coli 901C): 32 to 64 µg/mL (≈ 53.3 to 107 µM) | MIC (K. pneumoniae 848844): > 128 µg/mL | MIC (K. pneumoniae SI-117): > 128 µg/mL | MIC [1]: > 128 µg/mL | MIC (P. aeruginosa ATCC 27853): > 128 µg/mL | MIC (E. coli D22): > 128 µg/mL | MIC (K. pneumoniae UMM): > 128 µg/mL | MIC (P. aeruginosa ATCC 35151): 8 to 16 µg/mL (≈ 13.3 to 26.7 µM) | MIC (A. baumannii ATCC 19606): > 128 µg/mL | MIC (E. coli AG100): > 128 µg/mL | MIC (E. coli ATCC 25922): > 128 µg/mL

O=C(O)c1cccc2c1OB(O)[C@@H](NC(=O)[C@H](NC(=O)c1cnc3n(c1=O)CCS3)c1ccc(P(=O)(O)O)cc1)C2 (single isomer, unassigned) [Example 197]
MIC (E. coli AG100A): > 128 µg/mL | MIC (E. coli 901C): 2 to 4 µg/mL (≈ 3.33 to 6.66 µM) | MIC (K. pneumoniae 848844): > 128 µg/mL | MIC (K. pneumoniae SI-117): > 128 µg/mL | MIC [1]: 32 to 64 µg/mL (≈ 53.3 to 107 µM) | MIC (P. aeruginosa ATCC 27853): > 128 µg/mL | MIC (E. coli D22): 8 to 16 µg/mL (≈ 13.3 to 26.7 µM) | MIC (K. pneumoniae UMM): > 128 µg/mL | MIC (P. aeruginosa ATCC 35151): < 1 µg/mL | MIC (A. baumannii ATCC 19606): > 128 µg/mL | MIC (E. coli AG100): > 128 µg/mL | MIC (E. coli ATCC 25922): > 128 µg/mL

O=C(NCCCN1CCN(C(=O)NC(C(=O)N[C@H]2Cc3ccc(F)c(C(=O)O)c3OB2O)c2cc(F)c(O)c(O)c2Cl)C(=O)C1=O)c1ccccc1 (stereo partly drawn) [Example 202, (3R)-3-(2-(4-(3-benzamidopropyl)-2,3-dioxopiperazine-1-carboxamido)-2-(2-chloro-5-fluoro-3,4-dihydroxyphenyl)acetamido)-7-fluoro-2-hydroxy-3,4-dihydro-2H-benzo[e][1,2]oxaborinine-8-carboxylic acid]
EC50 (A. baumannii PBP2): 50 to 250 µM | EC50 (A. baumannii PBP1a): 10 to 50 µM

O=C(NCCN1CCN(C(=O)NC(C(=O)N[C@H]2Cc3ccc(F)c(C(=O)O)c3OB2O)c2cc(F)c(O)c(O)c2Cl)C(=O)C1=O)Nc1ccc(O)cc1 (stereo partly drawn) [Example 219, (3R)-3-(2-(2-chloro-5-fluoro-3,4-dihydroxyphenyl)-2-(4-(2-(3-(4-hydroxyphenyl)ureido)ethyl)-2,3-dioxopiperazine-1-carboxamido)acetamido)-7-fluoro-2-hydroxy-3,4-dihydro-2H-benzo[e][1,2]oxaborinine-8-carboxylic acid]
EC50 (A. baumannii PBP2): 10 to 50 µM | EC50 (A. baumannii PBP1a): < 10 µM

O=C(NCCN1CCN(C(=O)NC(C(=O)N[C@H]2Cc3ccc(F)c(C(=O)O)c3OB2O)c2cc(F)c(O)c(O)c2Cl)C(=O)C1=O)Nc1cccc(O)c1 (stereo partly drawn) [Example 220, (3R)-3-(2-(2-chloro-5-fluoro-3,4-dihydroxyphenyl)-2-(4-(2-(3-(3-hydroxyphenyl)ureido)ethyl)-2,3-dioxopiperazine-1-carboxamido)acetamido)-7-fluoro-2-hydroxy-3,4-dihydro-2H-benzo[e][1,2]oxaborinine-8-carboxylic acid]
EC50 (A. baumannii PBP2): < 10 µM | EC50 (A. baumannii PBP1a): < 10 µM

O=C(NCCCN1CCN(C(=O)N[C@@H](C(=O)N[C@H]2Cc3ccc(F)c(C(=O)O)c3OB2O)c2cc(F)c(O)c(O)c2Cl)C1=O)c1ccccc1 [Example 253, (R)-3-((R)-2-(3-(3-benzamidopropyl)-2-oxoimidazolidine-1-carboxamido)-2-(2-chloro-5-fluoro-3,4-dihydroxyphenyl)acetamido)-7-fluoro-2-hydroxy-3,4-dihydro-2H-benzo[e][1,2]oxaborinine-8-carboxylic acid]
EC50 (A. baumannii PBP2): < 10 µM | EC50 (A. baumannii PBP1a): 10 to 50 µM

O=C(NCCS(=O)(=O)N1CCN(C(=O)NC(C(=O)N[C@H]2Cc3ccc(F)c(C(=O)O)c3OB2O)c2cc(F)c(O)c(O)c2Cl)C1=O)c1ccccc1 (stereo partly drawn) [Example 260, (3R)-3-(2-(3-((2-benzamidoethyl)sulfonyl)-2-oxoimidazolidine-1-carboxamido)-2-(2-chloro-5-fluoro-3,4-dihydroxyphenyl)acetamido)-7-fluoro-2-hydroxy-3,4-dihydro-2H-benzo[e][1,2]oxaborinine-8-carboxylic acid]
EC50 (A. baumannii PBP2): 10 to 50 µM

O=C(NCCS(=O)(=O)N1CCN(C(=O)NC(C(=O)N[C@H]2Cc3ccc(F)c(C(=O)O)c3OB2O)c2cc(F)c(O)c(O)c2Cl)C1=O)c1cccc(O)c1 (stereo partly drawn) [Example 261, (3R)-3-(2-(2-chloro-5-fluoro-3,4-dihydroxyphenyl)-2-(3-((2-(3-hydroxybenzamido)ethyl)sulfonyl)-2-oxoimidazolidine-1-carboxamido)acetamido)-7-fluoro-2-hydroxy-3,4-dihydro-2H-benzo[e][1,2]oxaborinine-8-carboxylic acid]
EC50 (A. baumannii PBP2): 10 to 50 µM | EC50 (A. baumannii PBP1a): 10 to 50 µM

O=C(NCCS(=O)(=O)N1CCN(C(=O)NC(C(=O)N[C@H]2Cc3ccc(F)c(C(=O)O)c3OB2O)c2cc(F)c(O)c(O)c2Cl)C1=O)Nc1cccc(O)c1 (stereo partly drawn) [Example 266, (3R)-3-(2-(2-chloro-5-fluoro-3,4-dihydroxyphenyl)-2-(3-((2-(3-(3-hydroxyphenyl)ureido)ethyl)sulfonyl)-2-oxoimidazolidine-1-carboxamido)acetamido)-7-fluoro-2-hydroxy-3,4-dihydro-2H-benzo[e][1,2]oxaborinine-8-carboxylic acid]
EC50 (A. baumannii PBP2): 10 to 50 µM | EC50 (A. baumannii PBP1a): < 10 µM

O=C(NCCCS(=O)(=O)N1CCN(C(=O)NC(C(=O)N[C@H]2Cc3ccc(F)c(C(=O)O)c3OB2O)c2cc(F)c(O)c(O)c2Cl)C1=O)c1ccccc1 (stereo partly drawn) [Example 268, (3R)-3-(2-(3-((3-benzamidopropyl)sulfonyl)-2-oxoimidazolidine-1-carboxamido)-2-(2-chloro-5-fluoro-3,4-dihydroxyphenyl)acetamido)-7-fluoro-2-hydroxy-3,4-dihydro-2H-benzo[e][1,2]oxaborinine-8-carboxylic acid]
EC50 (A. baumannii PBP2): 10 to 50 µM | EC50 (A. baumannii PBP1a): 10 to 50 µM

O=C(NCCCS(=O)(=O)N1CCN(C(=O)NC(C(=O)N[C@H]2Cc3ccc(F)c(C(=O)O)c3OB2O)c2cc(F)c(O)c(O)c2Cl)C1=O)c1ccc(O)cc1 (stereo partly drawn) [Example 269, (3R)-3-(2-(2-chloro-5-fluoro-3,4-dihydroxyphenyl)-2-(3-((3-(4-hydroxybenzamido)propyl)sulfonyl)-2-oxoimidazolidine-1-carboxamido)acetamido)-7-fluoro-2-hydroxy-3,4-dihydro-2H-benzo[e][1,2]oxaborinine-8-carboxylic acid]
EC50 (A. baumannii PBP2): 10 to 50 µM | EC50 (A. baumannii PBP1a): < 10 µM

O=C(NCCCS(=O)(=O)N1CCN(C(=O)N[C@@H](C(=O)N[C@H]2Cc3ccc(F)c(C(=O)O)c3OB2O)c2cc(F)c(O)c(O)c2Cl)C1=O)c1cccc(O)c1 [Example 271, (R)-3-((R)-2-(2-chloro-5-fluoro-3,4-dihydroxyphenyl)-2-(3-((3-(3-hydroxybenzamido)propyl)sulfonyl)-2-oxoimidazolidine-1-carboxamido)acetamido)-7-fluoro-2-hydroxy-3,4-dihydro-2H-benzo[e][1,2]oxaborinine-8-carboxylic acid]
EC50 (A. baumannii PBP2): < 10 µM | EC50 (A. baumannii PBP1a): < 10 µM

O=C(NCCCS(=O)(=O)N1CCN(C(=O)NC(C(=O)N[C@H]2Cc3ccc(F)c(C(=O)O)c3OB2O)c2cc(F)c(O)c(O)c2Cl)C1=O)c1cccnc1 (stereo partly drawn) [Example 273, (3R)-3-(2-(2-chloro-5-fluoro-3,4-dihydroxyphenyl)-2-(3-((3-(nicotinamido)propyl)sulfonyl)-2-oxoimidazolidine-1-carboxamido)acetamido)-7-fluoro-2-hydroxy-3,4-dihydro-2H-benzo[e][1,2]oxaborinine-8-carboxylic acid]
EC50 (A. baumannii PBP2): 10 to 50 µM
